Usually EC50 stands for the concentration giving half of the maximal effect. A lower EC50 goes with higher potency in that assay. One may read the inhibition as the change of the read-out against control, counted positive when it falls.

What all share (format): cell-based
Assay [1] has as its system IL-6 (THP-1 cells). Description: IL-6 inhibition in LPS-stimulated THP-1 human monocyte cells (HTRF). As to conditions: LPS 500 ng/mL, 22 hours, IL6 HTRF. Here is the method:
Human monocyte cell line (THP-1 cells; Catalog # TIB-202, ATCC, Manassas, Va.) were cultured in Roswell Park Memorial Institute (RPMI) 1640 Medium (Catalog #21870-100, Buffalo, N.Y.) with 1% L-glutamine, 1% HEPES, 1% Sodium Pyruvate, 2% Sodium Bicarbonate supplemented with 100 units/mL penicillin, 50 μg/mL streptomycin, 2-mercaptoethanol (0.05 mM) [basal medium] and 10% fetal bovine serum (Catalog #16140089, Life Technologies, Carlsbad, Calif.) at 37° C. and 5% CO2.
THP-1 cells were cultured in basal media with 1% FBS for 24 hours before the start of the assay. Each compound was dissolved in DMSO as a 10 mM stock and used to prepare compound source plates. Serial dilution (1:3, 10-point dose-response curves starting from 10 μM) and compound transfer was performed using the ECHO 550 (Labcyte, Sunnyvale, Calif.) into 384-well white low volume assay plates (Greiner Bio-One) with appropriate DMSO backfill for a final DMSO concentration of 0.1%. THP-1 cells were plated at 5000 cells/well in the 384-well plates and incubated at 37° C. for 2 h. 500 ng/mL of LPS was added after 2 hours and cells were incubated for another 22 hours at 37° C. Plates were spun in a centrifuge for 1 minute at […] and a mixture of anti-IL6 XL665, and anti-IL6 Cryptate diluted in reconstitution buffer (Cisbio Inc.) was added to each well. Following incubation for 3 hrs at room temperature, Homogeneous Time-Resolved Fluorescence (HTRF) was measured using the Envision (Perkin Elmer) at 665 nm and […]. The ratio of fluorescence at 665 nm to 620 nm was used as a readout for IL6 quantification. All samples were processed in duplicate. Readings were normalized to DMSO treated cells and normalized activities were utilized for EC50 calculations using the dose-response log (inhibitor) vs. response-variable slope (four parameters) nonlinear regression feature available in GraphPad Prism 5.0 (or Dotmatics). For EC50 of >10 μM, the percent inhibition at 10 μM is provided.

Assay [2] deals with primary human fibroblasts derived from IPF patients (LL29 cells) treated with TGF-β1. Briefly: Inhibition of the fibrotic process: αSMA staining in TGF-β1 treated primary human fibroblasts from IPF patients (LL29 cells). As to conditions: Fibroblast, 96 h, TGF-β1 20 ng/mL, 4 days, % αSMA positive cells. The source says: Representative compounds were screened using primary human fibroblasts (derived from IPF patients) treated with TGF-β1 to determine their ability to inhibit the fibrotic process.
Primary human fibroblasts derived from IPF patients (LL29 cells) [^1Xiaoqiu Liu, et. al., “Fibrotic Lung Fibroblasts Show Blunted Inhibition by cAMP Due to Deficient cAMP Response Element-Binding Protein Phosphorylation”, Journal of Pharmacology and Experimental Therapeutics (2005), 315(2), 678-687; ^2Watts, K. L., et. al., “RhoA signaling modulates cyclin D1 expression in human lung fibroblasts; implications for idiopathic pulmonary fibrosis”, Respiratory Research (2006), 7(1), 88] were obtained from American Type Culture Collection (ATCC) and expanded in F12 medium supplemented with 15% Fetal Bovine Serum and Penicillin/Streptomycin.
Each compound was dissolved in DMSO as a 10 mM stock and used to prepare compound source plates. Serial dilution (1:2, 11-point dose-response curves from 10 μM to 1.87 nM) and compound transfer was performed using the ECHO 550 (Labcyte, Sunnyvale, Calif.) into 384-well clear bottom assay plates (Greiner Bio-One) with appropriate DMSO backfill for a final DMSO concentration of 0.1%. LL29 cells are plated at 1,500 cells/well in 80 μL/well F12 medium supplemented with 1% Fetal Bovine Serum. One hour after addition of the cells, TGF-β1 (Peprotech; 20 ng/mL) was added to the plates to induce fibrosis (ref. 1 and 2 above). Wells treated with TGF-β1 and containing DMSO were used as controls. Cells were incubated at 37° C. and 5% CO2 for 4 days. Following incubation for 4 days, SYTOX green nucleic acid stain (Life Technologies [Thermo Fisher Scientific]) was added to the wells at a final concentration of 1 μM and incubated at room temperature for 30 min. Cells were then fixed using 4% formaldehyde (Electron Microscopy Sciences), washed 3 times with PBS followed by blocking and permeabilization using 3% Bovine Serum Albumin (BSA; Sigma) and 0.3% Triton X-100 (Sigma) in PBS. Cells were then stained with antibody specific to α-smooth muscle actin (αSMA; Abcam) (ref. 1 and 2 above) in 3% Bovine Serum Albumin (BSA; Sigma) and 0.3% Triton X-100 (Sigma) in PBS, and incubated overnight at 4° C. Cells were then washed 3 times with PBS, followed by incubation with Alexa Flor-647 conjugated secondary antibody (Life Technologies [Thermo Fisher Scientific]) and DAPI at room temperature for 1 hour. Cells were then washed 3 times with PBS and plates were sealed for imaging. αSMA staining was imaged by excitation at 630 nm and emission at 665 nm and quantified using the Compartmental Analysis program on the CellInsight CX5 (Thermo Scientific). Dead or apoptotic cells were excluded from analysis based on positive SYTOX green staining. % of total cells positive for αSMA were counted in each well and normalized to the average of 11 wells treated with TGF-β1 on the same plate using Dotmatics' Studies Software. The normalized averages (fold change over untreated) of 3 replicate wells for each compound concentration were used to create dose-responses curves and EC50 values were calculated using non-linear regression curve fit in the Dotmatics' Studies Software. For EC50 of >10 μM, the percent inhibition at 10 μM is provided.

Assay [3] relates to Wnt activity (Sp5-Luc reporter, SW480 colon carcinoma cells). Description: Wnt activity screening assay: Sp5-Luc reporter gene in SW480 colon carcinoma cells. As to conditions: Homo sapiens; for EC50: overnight incubation, 10-point curve from 10 μM; for inhibition at 10 µM: given where EC50 >10 μM, read-out: percent inhibition at 10 μM. The source says: The screening assay for Wnt activity is described as follows. Reporter cell lines can be generated by stably transducing cancer cell lines (e.g., colon cancer) or primary cells (e.g., IEC-6 intestinal cells) with a lentiviral construct that includes a Wnt-responsive promoter driving expression of the firefly luciferase gene.
SW480 colon carcinoma cells were transduced with a lentiviral vector expressing luciferase with a human Sp5 promoter consisting of a sequence of eight TCF/LEF binding sites. SW480 cells stably expressing the Sp5-Luc reporter gene and a hygromycin resistance gene were selected by treatment with 150 μg/mL of hygromycin for 7 days. These stably transduced SW480 cells were expanded in cell culture and used for all further screening activities. Each compound was dissolved in DMSO as a 10 mM stock and used to prepare compound source plates. Serial dilution (1:3, 10-point dose-response curves starting from 10 μM) and compound transfer was performed using the ECHO 550 (Labcyte, Sunnyvale, Calif.) into 384-well white solid bottom assay plates (Greiner Bio-One) with appropriate DMSO backfill for a final DMSO concentration of 0.1%. For Sp5-Luc reporter gene assays, the cells were plated at 4,000 cells/well in 384-well plates with medium containing 1% fetal bovine serum and incubated overnight at 37° C. and 5% CO2. Following incubation, 20 μl of BrightGlo luminescence reagent (Promega) was added to each well of the 384-well assay plates. The plates were placed on an orbital shaker for 2 min and then luminescence was quantified using the Envision (Perkin Elmer) plate reader. Readings were normalized to DMSO only treated cells, and normalized activities were utilized for EC50 calculations using the dose-response log (inhibitor) vs. response-variable slope (four parameters) nonlinear regression feature available in GraphPad Prism 5.0 (or Dotmatics). For EC50 of >10 μM, the percent inhibition at 10 μM is provided.

In assay [4] the test system is SW480 colon cancer cells. Briefly: Cell viability assay (CellTiter-Blue), SW480 colon cancer cells. Particulars: Homo sapiens, 96 h, four days, CellTiter-Blue. The procedure: Representative compounds were screened using the following assay procedure to assess the effect on cell viability as described below.
Each compound was dissolved in DMSO as a 10 mM stock and used to prepare compound source plates. Serial dilution (1:3, 8-point dose-response curves from 10 μM to 0.0045 μM) and compound transfer was performed using the ECHO 550 (Labcyte, Sunnyvale, Calif.) into 96-well clear bottom, black-walled plates (Corning—Costar).
Approximately 2×10^3 SW480 colon cancer cells were seeded into each well and allowed to incubate in the presence or absence of compound for four days at 37° C./5% CO2. Eight replicates of DMSO-treated cells served as controls and cells treated with compound were performed in duplicate.
After incubation, 20 μL of CellTiter-Blue (Promega) was added to each well allowed to incubate for approximately 3 hours. This reagent was a buffered solution which contains resazurin, metabolically active cells were able to reduce rezarurin (blue) into resorufin (pink) which was highly fluorescent. This measured fluorescence was used as a readout for cell viability.
After incubation, the plates were read at Ex 560 nm Em 590 nm (Cytation 3, BioTek). Dose-response curves were generated and EC50 concentration values were calculated using non-linear regression curve fit in the GraphPad Prism (San Diego, Calif.) or Dotmatics' Studies Software (Bishops Stortford, UK). For EC50 of >10 μM, the percent inhibition at 10 μM is provided.

A value given as a limit tells only on which side of the number the result lay.

Regarding `CC(C)CC(=O)Nc1cncc(-c2ccc3[nH]nc(-c4cc5c(N6CCN(C)CC6)cccc5[nH]4)c3n2)c1` [Compound 226, 3-Methyl-N-(5-(3-(4-(4-methylpiperazin-1-yl)-1H-indol-2-yl)-1H-pyrazolo [4,3-b]pyridin-5-yl)pyridin-3-yl)butanamide], the EC50 in assay [1] was determined as 359 nM; in assay [2], 2550 nM; in assay [3], 2140 nM; in assay [4], 1.93 µM.

As to `c1csc(-c2cccc3[nH]c(-c4n[nH]c5ccc(-c6ccncc6)nc45)cc23)c1` [Compound 354, 5-(Pyridin-4-yl)-3-(4-(thiophen-2-yl)-1H-indol-2-yl)-1H-pyrazolo[4,3-b] pyridine], the half-maximal effective concentration (EC50) amounted to 1420 nM in assay [1], 1460 nM in assay [2], 3600 nM in assay [3] and 4.12 µM in assay [4].

Consider `CN(C)CCOc1cncc(-c2ccc3[nH]nc(-c4cc5c(-c6cccnc6)cccc5[nH]4)c3n2)c1` [Compound 591, N,N-Dimethyl-2-((5-(3-(4-(pyridin-3-yl)-1H-indol-2-yl)-1H-pyrazolo[4,3-b]pyridin-5-yl)pyridin-3-yl)oxy)ethan-1-amine], for which the EC50 worked out at 17 nM in assay [1], 1160 nM in assay [2], 4280 nM in assay [3] and 1.09 µM in assay [4].

Regarding `Fc1cccc(-c2cccc3[nH]c(-c4n[nH]c5ccc(-c6cncc(CN7CCC(F)(F)C7)c6)nc45)cc23)c1` [Compound 26, 5-(5-((3,3-Difluoropyrrolidin-1-yl)methyl)pyridin-3-yl)-3-(4-(3-fluorophenyl)-1H-indol-2-yl)-1H-pyrazolo[4,3-b]pyridine], the EC50 came out at 530 nM in assay [1], 409 nM in assay [2], 981 nM in assay [3] and 3.11 µM in assay [4].

As for `CN1CCN(c2cccc3[nH]c(-c4n[nH]c5ccc(-c6cncc(CN7CCCCC7)c6)nc45)cc23)CC1` [Compound 239, 3-(4-(4-Methylpiperazin-1l-yl)-1H-indol-2-yl)-5-(5-(piperidin-1-ylmethyl)pyridin-3-yl)-1H-pyrazolo[4,3-b]pyridine], the EC50 is 1190 nM in assay [1], 4980 nM in assay [2], more than 10000 nM in assay [3] and 9.36 µM in assay [4]. In addition, the inhibition at 10 µM in assay [3] is 5%.

For the molecule `Cc1ncc(-c2ccc3[nH]nc(-c4cc5ccccc5[nH]4)c3n2)n1C` [Compound 681, 5-(1,2-Dimethyl-1H-imidazol-5-yl)-3-(1H-indol-2-yl)-1H-pyrazolo[4,3-b] pyridine], the EC50 in assay [1] amounted to 17 nM; in assay [2] it was 279 nM; in assay [3], 640 nM; in assay [4], 0.728 µM.

As to `Cc1ccncc1-c1ccc2[nH]nc(-c3cc4c(-c5ccc(F)cc5)cccc4[nH]3)c2n1` [Compound 33, 3-(4-(4-Fluorophenyl)-1H-indol-2-yl)-5-(4-methylpyridin-3-yl)-1H-pyrazolo [4,3-b]pyridine], the EC50 is 388 nM in assay [1], 1230 nM in assay [2], 1020 nM in assay [3] and 6.74 µM in assay [4].

In the case of `c1cncc(-c2ccc3[nH]nc(-c4cc5c(N6CCCCC6)cccc5[nH]4)c3n2)c1` [Compound 172, 3-(4-(Piperidin-1-yl)-1H-indol-2-yl)-5-(pyridin-3-yl)-1H-pyrazolo[4,3-b] pyridine], the EC50 in assay [1] came to 126 nM; in assay [2], 295 nM; in assay [3], 253 nM; in assay [4], 2.15 µM.

Consider `O=C(Nc1cncc(-c2ccc3[nH]nc(-c4cc5c(-c6cccs6)cccc5[nH]4)c3n2)c1)c1ccccc1` [Compound 347, N-(5-(3-(4-(Thiophen-2-yl)-1H-indol-2-yl)-1H-pyrazolo[4,3-b]pyridin-5-yl)pyridin-3-yl)benzamide], for which the EC50 in assay [1] was 1070 nM; in assay [2] it was 446 nM; in assay [3], more than 10000 nM; in assay [4], 6.08 µM. Also, in assay [3], the inhibition at 10 µM was 35.8%.
